Reference: patent US20250099475A1, “METHODS OF TREATING HYPERTENSION BY PERIODIC SUPPRESSION OF ALDOSTERONE SYNTHASE” (Mineralys Therapeutics, Inc., priority 2022, published 2025)
“Also recorded” adds a separate entry of the source. Read-outs that look alike come from different tables or passages of the source.

Assays:
[1] = Phase 1 part 2 multiple ascending dose: pharmacokinetics; type: in vivo, human; conditions: for half-life: male, human, plasma, oral
Description: A 4-part, Phase 1 randomized, double-blind, placebo-controlled, first-in-human study was performed to determine the safety, tolerability, PK, and PD of single ascending doses (SADs; part 1) and multiple ascending doses (MADs; part 2) of Compound A HBr in healthy participants. The study also assessed whether there were sex (part 3) and age-related (part 4) effects on the PK of a single dose of Compound A HBr. The study was approved by the local independent ethics committee; the BEBO foundation in Assen, Netherlands; and the Central Committee on Research Involving Human Subjects in The Hague, Netherlands; and conducted according to the provisions of the Declaration of Helsinki. Written informed consent was obtained from each study participant before conducting any protocol-related procedures.
In part 2, Compound A HBr or placebo was administered to a total of 36 healthy Caucasian men aged 19 to 54 years (inclusive) in 3 cohorts of 12 participants each. In each cohort, 9 participants were randomized to receive multiple doses of Compound A HBr and 3 participants were randomized to receive matching placebo. The participants received daily doses in the fed state from Day 1 to Day 7. The doses were administered in an ascending order per cohort. Progression to the next dose level and dose selection were based on available data from part 1 and the preceding dose cohort in part 2 (safety, tolerability, and PD data [up to 48 hours post-final dose] and available PK data [up to 24 hours post-final dose] from a minimum of 10 participants [Compound A HBr n≥7] in the preceding dose cohort). The final dose levels of Compound A HBr for part 2 were 40, 120, and 360 mg. An ACTH challenge test was performed on Day −2 and on Day 6 to evaluate Compound A HBr selectivity for aldosterone synthesis. Plasma concentrations of aldosterone and 11-deoxycortisol and serum concentrations of cortisol and 11-DOC were measured pre-ACTH dose and 30 and 60 minutes post-ACTH dose on Day −2 and Day 6.
Plasma PK parameters were derived by non-compartmental analysis using WinNonlin® (version 6.3). Dose proportionality was assessed using the power model with AUC0-∞, AUC0-last, and Cmax for part 1 (SAD) and with AUC0-last, AUC0-∞, AUC0-τ, and Cmax for part 2 (MAD). A linear model (ln(Y)=α+β×ln(X), where Y is the pharmacokinetic parameter and X is the dose) was used to fit the power model, after log-transformation of the parameters. Dose proportionality was concluded if the 95% confidence interval (CI) for slope (β) included the value 1.
An analytical method for the determination of Compound A in human plasma (dipotassium ethylenediaminetetraacetic acid [K2-EDTA]) and human urine using solid-phase extraction and high-performance liquid chromatography with mass spectrometric detection was successfully validated over the concentration range 0.1000 ng/mL (lower limit of quantification) to 100.0 ng/mL prior to initiation of the clinical trial. […] For all other analytes, validated quantitative measurement methods were used.

[2] = system: plasma aldosterone concentrations (PACs); test: Sodium-depleted cynomolgus monkey model; type: in vivo; conditions: single oral administration
Description: A sodium-depleted cynomolgus monkey model with secondary hyperaldosteronism was performed to evaluate the effect of Compound A on plasma aldosterone concentrations (PACs). The model used a low-sodium diet and 3 doses of 5 mg/kg furosemide. Two animals each were assigned to 6 groups consisting of a vehicle group and 5 Compound A (free base) groups (0.3, 1, 3, 10, and 30 mg/kg). Six crossovers were performed so that every animal was assigned to each group. Hyperaldosteronism was induced once every 3 weeks. PAC was determined by radioimmunoassay and measured during the 24 hours after Compound A administration.

[3] = 13-week repeat-dose oral toxicology study in rats; type: in vivo, rat; conditions: both sexes, Sprague Dawley, rat, in vivo, oral, 13-week, read-out: no observed adverse effect level (NOAEL)
Description: (§1) The toxicologic profile of Compound A was assessed in several toxicology studies, including 13-week repeat-dose oral studies in Sprague Dawley rats and cynomolgus monkeys, a standard battery of genotoxicity studies, preliminary embryo-fetal development studies in rats and rabbits, and in vitro and in vivo phototoxicity studies. Rats and monkeys were selected for the general toxicology studies on the basis of pharmacology and metabolism data that indicated these animals would have metabolism similar to that of humans. Studies were performed in accordance with GLP regulations.
(§2) Doses in the 13-week toxicology studies were 0, 50, 150, 450 (female), and 600 (male) mg/kg/d in Sprague Dawley rats. In cynomolgus monkeys (females and males), the doses were 0, 10, 30, and 100 mg/kg/d. Hematoxylin-and-eosin-stained sections (nominal thickness of approximately 5 μm) were prepared from the formalin-fixed paraffin-embedded organs/tissues of all animals in the toxicology studies.

Sprague Dawley rats = test: 13-week repeat-dose oral toxicology study in rats; type: in vivo, rat; conditions: 13-week daily dosing, doses ≥150 mg/kg/d
Description: as §1, §2

[4] = system: plasma cortisol concentrations (PCCs); test: ACTH-treated cynomolgus monkey model; type: in vivo
Description: An adrenocorticotropic hormone (ACTH)-treated cynomolgus monkey model was performed to evaluate the effect of Compound A on plasma cortisol concentrations (PCCs). A dose of Compound A, as free base, that was 100-fold higher than required to reduce PACs (0.3 mg/kg by mouth) was administered, followed immediately by ACTH (50 μg/kg subcutaneously). PACs were also evaluated in the animals. PACs and PCCs were determined by radioimmunoassay and measured during the 24 hours after Compound A administration.

## CC(=O)N[C@H]1CC[C@H](NC(=O)CN2CCN(c3nncc(-c4ccc(C)cc4)n3)CC2)CC1 [Compound A HBr]
[1]; 40 mg once daily, Day 1, fed
  AUC0-24, mean (SD): 1574 (282) ng × h/mL
  Cmax, mean (SD): 252 (64) ng/mL
  Tmax, median and range: 3 (0.5-5) h
[1]; 40 mg once daily, Day 7, fed
  AUC0-24, mean (SD): 1795 (312) ng × h/mL
  Cmax, mean (SD): 365 (46) ng/mL
  T 1/2, mean (SD): 9 (2) h
  Tmax, median and range: 1.5 (0.5-5) h
[1]; 120 mg once daily, Day 1, fed
  AUC0-24, mean (SD): 4876 (1024) ng × h/mL
  Cmax, mean (SD): 887 (291) ng/mL
  Tmax, median and range: 3 (0.5-8) h
[1]; 120 mg once daily, Day 7, fed
  AUC0-24, mean (SD): 5816 (1315) ng × h/mL
  Cmax, mean (SD): 1039 (343) ng/mL
  T 1/2, mean (SD): 12 (2) h
  Tmax, median and range: 2.5 (1-4)^ h
[1]; 360 mg once daily, Day 1, fed
  AUC0-24, mean (SD): 19335 (3111) ng × h/mL
  Cmax, mean (SD): 3220 (1171) ng/mL
  Tmax, median and range: 3 (2-5) h
[1]; 360 mg once daily, Day 7, fed
  AUC0-24, mean (SD): 21825 (3955) ng × h/mL
  Cmax, mean (SD): 3812 (1282) ng/mL
  T 1/2, mean (SD): 9 (2) h
  Tmax, median and range: 2 (1-3) h
[1]; 40 mg once daily, Day 1, fed, read-out: T 1/2, mean (SD) (converted)
  half-life: 5 h
[1]; 120 mg once daily, Day 1, fed, read-out: T 1/2, mean (SD) (converted)
  half-life: 4 h
[1]; 360 mg once daily, Day 1, fed, read-out: T 1/2, mean (SD) (converted)
  half-life: 4 h
[1]; once-daily dosing, read-out: t1/2 on Day 7 (converted)
  half-life: ~10 h
[1]; once-daily 40 to 360 mg
  Steady state achieved by: ~5 days

## CC(=O)N[C@H]1CC[C@H](NC(=O)CN2CCN(c3nncc(-c4ccc(C)cc4)n3)CC2)CC1 [Compound A]
[2]
  effect on PAC: significantly decreased PAC
[3]
  NOAEL at 13 weeks: 50 mg/kg/day
Sprague Dawley rats
  histopathological findings: vacuolation of zona fasciculata cells and hypertrophy of zona glomerulosa cells in the adrenal glands
[4]; monkey models, dose ratio
  selectivity for CYP11B2 over CYP11B1 in vivo: 100 fold
[4]; single oral dose 100 times greater than the dose that inhibited PAC production, ACTH-loaded monkeys
  effect on PCCs: did not affect PCCs; also recorded: PCCs were not affected
